According to patent US9499502B2, “5-substituted iminothiazines and their mono- and dioxides as BACE inhibitors, compositions, and their use” (Merck Sharp & Dohme Corp., priority 2011, dated 2016):
Like-named read-outs stand apart in the source and are kept apart here.

Biological target: soluble human BACE1 catalytic domain (Homo sapiens (Human), UniProt P56817)
Assay: BACE1 HTRF FRET Assay
Settings: for inhibition at 10 µM: read-out: BACE1 inhibition, % Inh. at 10 μM, at 10 μM
[1] = BACE1 Ki (nM), Ki calculated from IC50 using the Cheng-Prusoff equation
[2] = read-out: BACE1 Ki, Ki calculated from IC50 using the Cheng-Prusoff equation

Sequence of soluble human BACE1 catalytic domain (P56817 75-416): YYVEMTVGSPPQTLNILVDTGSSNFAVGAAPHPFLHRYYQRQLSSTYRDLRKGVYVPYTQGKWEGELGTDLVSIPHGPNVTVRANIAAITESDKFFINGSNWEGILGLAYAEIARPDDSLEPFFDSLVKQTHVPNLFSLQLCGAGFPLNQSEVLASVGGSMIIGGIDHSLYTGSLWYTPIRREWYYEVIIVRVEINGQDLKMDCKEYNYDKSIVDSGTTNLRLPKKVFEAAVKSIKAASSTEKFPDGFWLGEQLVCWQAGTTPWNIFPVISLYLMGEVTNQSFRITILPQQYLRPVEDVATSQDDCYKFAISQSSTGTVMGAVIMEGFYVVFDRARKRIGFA

| SMILES | Ki (read-out: BACE1 inhibition, Ki) | other results |
| --- | --- | --- |
| Cc1nc2cc(CC3(C)C(=N)N[C@](C)(c4cc(F)ccc4F)CS3(=O)=O)ccc2o1 (single isomer, unassigned) [Example 32a-a] | – | Ki (BACE1 Ki (nM)): 3860 nM |
| Cc1nc2cc(CC3(C)C(=N)N[C@](C)(c4cc(F)ccc4F)CS3(=O)=O)ccc2o1 (single isomer, unassigned) [Example 32a-b] | – | Ki (BACE1 Ki (nM)): 4640 nM |
| CC1(C)C(=N)N[C@](C)(c2cccc(Cl)c2F)CS1(=O)=O [Entry 7] | 1400 nM | – |
| CC1(C)C(=N)N[C@](C)(c2c(F)cccc2F)CS1(=O)=O [Entry 11] | 1300 nM | – |
| CC1(C)C(=N)N[C@](C)(c2c(F)ccc(N)c2F)CS1(=O)=O [Entry 13] | 3600 nM | – |
| CC1(C)C(=N)N[C@](C)(c2c(F)ccc(F)c2F)CS1(=O)=O [Entry 14] | 2400 nM | – |
| CC1(C)C(=N)N[C@](C)(c2c(F)c(F)cc([N+](=O)[O-])c2F)CS1(=O)=O [Entry 15] | – | inhibition at 10 µM: 45% |
| CC(C)[C@@]1(C)C(=N)N[C@](C)(c2cc(N)ccc2F)CS1(=O)=O [Entry 27] | 4800 nM | – |
| CC(C)[C@]1(C)C(=N)N[C@](C)(c2cc(N)ccc2F)CS1(=O)=O [Entry 28] | 7300 nM | – |
| C[C@]1(CC(F)(F)F)C(=N)N[C@](C)(c2cc(N)ccc2F)CS1(=O)=O [Entry 35] | 3000 nM | – |
| C[C@@]1(c2cc(N)ccc2F)CS(=O)(=O)[C@](C)(CC(F)(F)F)C(=N)N1 [Entry 36] | – | inhibition at 10 µM: 37% |
| C[C@@]1(c2cc(N)ccc2F)CS(=O)(=O)[C@@](C)(C2CCC2)C(=N)N1 [Entry 39] | 1700 nM | – |
| C=CC[C@]1(C)C(=N)N[C@](C)(c2cc(N)ccc2F)CS1(=O)=O [Entry 44] | – | inhibition at 10 µM: 38% |
| C[C@]1(CC2CC2)C(=N)N[C@](C)(c2cc(N)ccc2F)CS1(=O)=O [Entry 47] | 1800 nM | – |
| C[C@@]1(c2cc(N)ccc2F)CS(=O)(=O)[C@](C)(CC2CC2)C(=N)N1 [Entry 48] | – | inhibition at 10 µM: 37% |
| C[C@@]1(c2cc(N)ccc2F)CS(=O)(=O)[C@@](C)(C2CCOCC2)C(=N)N1 [Entry 50] | 500 nM | – |
| C[C@]1(CC2CCOCC2)C(=N)N[C@](C)(c2cc(N)ccc2F)CS1(=O)=O [Entry 53] | 1300 nM | – |
| C[C@@]1(c2cc(N)ccc2F)CS(=O)(=O)[C@@](C)(c2cccc(F)c2)C(=N)N1 [Entry 60] | 1100 nM | – |
| C[C@@]1(c2cc([N+](=O)[O-])ccc2F)CS(=O)(=O)[C@@](C)(c2cccc(C(F)(F)F)c2)C(=N)N1 [Entry 66] | 600 nM | – |

| SMILES | Ki (read-out: BACE1 inhibition, Ki) | other results |
| --- | --- | --- |
| C[C@@]1(c2cc(N)ccc2F)CS(=O)(=O)[C@@](C)(c2cccc(C(F)(F)F)c2)C(=N)N1 [Entry 68] | 1400 nM | – |
| C[C@@]1(c2cc(N)ccc2F)CS(=O)(=O)[C@@](C)(c2cc(C(F)(F)F)ccn2)C(=N)N1 [Entry 72] | 1400 nM | – |
| C[C@@]1(c2cc(N)ccc2F)CS(=O)(=O)[C@@](C)(c2cc(C(F)(F)F)ccn2)C(=N)N1 [Entry 73] | 4600 nM | – |
| C[C@@]1(c2cc(N)ccc2F)CS(=O)(=O)[C@@](C)(c2ccccn2)C(=N)N1 [Entry 76] | 6600 nM | – |
| C[C@@]1(c2sc(Br)cc2F)CS(=O)(=O)[C@@](C)(c2ccccn2)C(=N)N1 [Entry 85] | 1500 nM | – |
| C[C@@]1(c2ccccn2)C(=N)N[C@](C)(c2sc(Br)cc2F)CS1(=O)=O [Entry 86] | – | inhibition at 10 µM: 44% |
| C[C@@]1(c2sc(Br)cc2F)CS(=O)(=O)[C@@](C)(c2cccc(F)c2)C(=N)N1 [Entry 87] | 600 nM | – |
| COCC1(COC)C(=N)N[C@](C)(c2sc(Br)cc2Cl)CS1(=O)=O [Entry 89] | 1900 nM | – |
| CC1(C)C(=N)N[C@](C)(c2cc(NC(=O)c3ccc(F)cn3)ccc2F)CS1(=O)=O [Example 1] | – | Ki [1]: < 5 nM; Ki [2]: 1.2 nM |
| CC1(C)C(=N)N[C@](C)(c2cc([N+](=O)[O-])ccc2F)CS1(=O)=O [Example 2-1] | – | inhibition at 10 µM: 45% |
| CC1(C)C(=N)N[C@](C)(c2cc(N)cc(Cl)c2F)CS1(=O)=O [Example 2A-7] | 3100 nM | – |
| CC1(C)C(=N)N[C@](C)(c2nc(N)ccc2F)CS1(=O)=O [Example 2F-3] | 6200 nM | – |
| CC1(C)C(=N)N[C@](C)(c2cc(NC(=O)c3ncc(F)cc3F)ccc2F)CS1(=O)=O [Example 2] | – | Ki [1]: < 5 nM; Ki [2]: 0.9 nM |
| Cc1ccc(C(=O)Nc2ccc(F)c([C@]3(C)CS(=O)(=O)C(C)(C)C(=N)N3)c2)nc1 [Example 4] | – | Ki [2]: 8 nM |
| CC1(C)C(=N)N[C@](C)(c2cc(Br)cs2)CS1(=O)=O [Example 6C-1] | 4700 nM | – |
| C[C@]1(CC(F)(F)F)C(=N)N[C@](C)(c2sc(Br)cc2F)CS1(=O)=O [Example 6F-3a] | 500 nM | – |
| CC1(C)C(=N)N[C@](C)(c2cc(NC(=O)c3ccc(C(F)(F)F)cn3)ccc2F)CS1(=O)=O [Example 6] | – | Ki [2]: 0.7 nM |
| CC1(C)C(=N)N[C@](C)(c2cc(NC(=O)c3ccc(Cl)cc3)ccc2F)CS1(=O)=O [Example 8] | – | Ki [2]: 19 nM |
| CC1(C)C(=N)N[C@](C)(c2cc(NC(=O)c3ncc(Cl)cc3Cl)ccc2F)CS1(=O)=O [Example 9] | – | Ki [2]: < 0.5 nM |
